What was measured:
[1] = SDS-PAGE analysis of oligomerization; type: physicochemical; settings: in the presence of SDS
Protocol: To determine whether bibacillin 1 could quorum sense through an aggregation mechanism, the aggregation propensity of bibacillin 1 was analyzed using SDS-PAGE and dynamic light scattering (DLS). […] Since SDS can influence aggregation, the aggregation of bibacillin 1 was further investigated under SDS-free conditions using DLS (Fig. 6B). Bib1α exists in solution as aggregates that are 159 nm in diameter on average (PDI = 0.224) and Bib1β forms aggregates that are 291 nm in diameter on average (PDI = 0.384). […] Confirmation of this hypothesis will require in vitro studies with Bib1R1/R2.

[2] = In vitro pore formation assay, pyranine-encapsulated liposomes; settings: total peptide 5 μM; for pore formation activity in liposomes: pH-dependent pyranine fluorescence, DOPC liposomes
Protocol: To investigate the lipid II-dependence of the pore formation activity of bibacillin 1, pyranine-encapsulated liposomes were prepared containing or lacking lipid II and pore formation was monitored via pH-dependent pyranine fluorescence.[79]
This assay was conducted as described elsewhere.[79]

M. luteus ATCC 4698 [3] = experiment: Time-kill assay; type: cell-based, Micrococcus luteus; settings: total peptide 20 μM, 30 °C; for killing activity in time-kill assay: mixture 1 : 1
Protocol: The solutions were incubated at 30 °C with shaking. At each time point, 20 μL was removed from each culture and immediately streaked onto tryptic soy broth agar plates. The plates were incubated at 30 °C for 36–48 h and colonies were counted.

rabbit erythrocytes [4] = experiment: Agar diffusion hemolysis assay; type: cell-based; settings: 300 pmol peptide spotted (3 μL of 100 μM in PBS); 5% (v/v) rabbit erythrocytes in 0.7% BHI agar; 37 °C, 16 h; mixtures 1 : 1
Protocol: Cytolysin was used as a positive control.
Defibrinated rabbit erythrocytes (Hemostat) were washed by 5-fold dilution in cold sterile PBS, followed by centrifugation at 1000g for 10 min and decanting. This process was repeated until the supernatant was clear. The washed erythrocytes were diluted to a concentration of 5% (v/v) in molten BHI containing 0.7% agar cooled to 50 °C and the mixture was immediately deposited onto a warm 2% BHI agar plate. After setting at room temperature for at least 30 min, 3 μL of peptide solution diluted in PBS to a concentration of 100 μM was deposited onto the agar plate and the plate was allowed to stand for another 30 min. The plate was then incubated at 37 °C for 16 h before documentation.

M. luteus ATCC 4698 [5] = experiment: Membrane depolarization assay, DiSC3(5); settings: DiSC3(5) fluorescence; M. luteus OD600 = 0.2; 30 min; peptides individually
Protocol: (B) DiSC3(5) fluorescence signal after incubation of M. luteus (OD600 = 0.2) with Bib1α or Bib1β individually or as a 1 : 1 mixture for 30 min. […] In all cases, a total peptide concentration of 5 μM was used.
The mixture was transferred to a 96-well black plate and the fluorescence of DiSC3(5) was measured using an excitation wavelength of 622 nm and an emission wavelength of 670 nm throughout the experiment. The fluorescence signal was measured for 8 min prior to the addition of peptides. After adding peptides, the fluorescence signal was monitored for 30 min. The maximum fluorescence signal achieved over the entire course of the experiment was considered to be a metric of membrane depolarization activity and was plotted as a function of peptide concentration.

[6] = Dynamic light scattering of aggregates; type: physicochemical; settings: phosphate buffered saline pH = 7.4, room temperature, total peptide 1 μM; for average diameter of aggregates (DLS): SDS-free
Protocol: Fig. 6 Exploring the quorum sensing mechanism of bibacillin 1. (A) Assays to assess whether bibacillin 1 triggers the CylR1/R2 system. A reporter strain of E. faecalis with LacZ expression under the control of the CylR1/R2 system was seeded into soft agar containing X-gal. Next, 300 pmol of Bib1α, Bib1β, and Bib1βDha either separately or as 1 : 1 mixtures were deposited onto the soft agar layer. Nisin (300 pmol) and CylLS′′ (30 pmol) were used as negative and positive controls, respectively. (B) Size distributions obtained using dynamic light scattering showing the oligomeric states of Bib1α, Bib1β, and Bib1α : Bib1β (1 : 1) in phosphate buffered saline (pH = 7.4) at room temperature. In each case, the total peptide concentration was 1 μM.
Enzyme mixtures used for molecular biology were purchased from New England BioLabs (NEB) (Ipswich, MA). Chemicals were purchased from Sigma-Aldrich (St. Louis, MO). Growth media were purchased from Becton, Dickinson and Company (Franklin Lake, NJ) or Fisher Scientific (Pittsburgh, PA). Single stranded DNA used as primers for PCR were purchased from Integrated DNA Technologies (Newark, NJ). Gene fragments were purchased from Twist Bioscience (San Francisco, CA). The sequences of primers and gene fragments can be found in Tables S2 and S3 (ESI ^†), respectively. Whole plasmid sequencing was performed by Plasmidsaurus using Oxford Nanopore Technology with custom analysis and annotation. Matrix-assisted laser desorption/ionization time-of-flight mass spectrometry (MALDI-TOF MS) analysis was performed on a Bruker UltrafleXtreme MALDI-TOF mass spectrometer (Bruker Daltonics) at the University of Illinois School of Chemical Sciences Mass Spectrometry. All samples analyzed by MALDI-TOF MS were co-crystallized with Super DHB MALDI matrix purchased from Sigma-Aldrich. Semi-preparative reversed phase HPLC (R-HPLC) was performed on an Agilent 1260 infinity II LC system. Fluorescence emission intensities and optical densities were determined using a Biotek Synergy H4. Dynamic light scattering (DLS) analysis was performed on a Zetasizer Nanoseries (Malvern Panalytical,). CylLS′′ and CylLL′′ were prepared using a previously described procedure.[36] Nisin was isolated from commercially available crude extracts of Lactococcus lactis (Sigma Aldrich).

rabbit erythrocytes [7] = type: cell-based; settings: total peptide concentration 2 μM; 1 h at 37 °C; mixture 1 : 1
Protocol: Solution phase hemolysis assays were conducted as described previously.[36]
Fig. S2. […] A) Hemoglobin release […]
erythrocytes were treated with 0.03% v/v triton X-100. Negative control contained only buffer. A total peptide concentration of 2 µM was used in each case. B) Extent of hemolysis after treating freshly washed rabbit erythrocytes with 1:1 of CylLS”:CylLL” at 37 ̊C for 1 h. Data was fit to a […]
(1 picture or pasted object on this page, not shown here)

[8] = tested on: T1, lipid II consumption by E. coli PBP1b; experiment: In vitro peptidoglycan synthesis assay with lipid II substrate (TLC); type: biochemical; settings: 4 equivalents of peptide relative to lipid II; 30 °C, 2 h; thin layer chromatography; mixture 1 : 1
T1 construct: made in house
Protocol: A solution of lipid II (1.5 nmol) in 1 : 1 CHCl3 : MeOH that was prepared by a previously disclosed procedure[87] was added to a low binding Eppendorf tube and concentrated to remove any organic solvent. Triton X-100 (1% v/v, 2 μL) was added to the residue and the mixture was sonicated briefly before diluting with 37.5 μL of reaction buffer (20 mM MES, 2 mM MgCl2, 2 mM CaCl2, pH = 5.5). The solution was then transferred to a new low binding Eppendorf tube containing lanthipeptide. The mixture was vortexed and briefly sonicated to ensure dissolution. The mixtures were incubated for 10 min at room temperature before adding PBP1b (6 μg), which was prepared as described elsewhere,[77] and then incubated at 30 °C. After 2 h, 150 μL nBuOH : AcOH-pyridine (2 : 1) was added to the reaction mixture and the organic layer was removed, washed with 40 μL of water and then concentrated. The residue was dissolved in 12 μL of 1 : 1 MeOH : CHCl3 and 3 μL was deposited onto a silica gel plate. The TLC plate was developed in mobile phase (88 : 48 : 10 : 1 CHCl3 : MeOH : H2O : NH4OH) for 10 min before drying and staining the plate with cerium ammonium sulfate. The plate was documented immediately after the staining procedure was completed.

| SMILES | oligomerization by SDS-PAGE [1] | lipid II dependence of pore formation activity ([2]; DOPC liposomes containing or lacking 0.1 mol% lipid II) | pore formation activity in liposomes [2] | time after which cells began to recover from treatment (M. luteus ATCC 4698 [3]) | killing activity in time-kill assay (M. luteus ATCC 4698 [3]; about 10^6 CFU per mL) | hemolytic activity on an agar plate (rabbit erythrocytes [4]) | membrane depolarization activity, all concentrations tested (M. luteus ATCC 4698 [5]) | PDI of aggregates (DLS) [6] | average diameter of aggregates (DLS) [6] | hemolysis in solution (hemoglobin release, absorbance at 415 nm) (rabbit erythrocytes [7]) | protection of lipid II from consumption by PBP1b [8] | time after treatment at which minimal cell counts were reached (M. luteus ATCC 4698 [3]; about 10^6 CFU per mL) | size distribution of aggregates (DLS) [6] |
| --- | --- | --- | --- | --- | --- | --- | --- | --- | --- | --- | --- | --- | --- |
| C=C(NC(=O)[C@H](C)NC(=O)[C@@H]1CS[C@H](C)[C@H](N)C(=O)NC(=C)C(=O)N2CCC[C@H]2C(=O)N[C@@H](C)C(=O)N1)C(=O)N[C@@H](C)C(=O)N[C@@H](CCSC)C(=O)N[C@@H](CC(C)C)C(=O)N[C@@H](Cc1ccc(O)cc1)C(=O)N[C@@H](CC(C)C)C(=O)N[C@@H](CCC(N)=O)C(=O)NCC(=O)N[C@H](C(=O)NC(=CC)C(=O)N[C@H](C(=O)NC(=C)C(=O)N[C@@H](CC(C)C)C(=O)NCC(=O)N[C@@H](CC(C)C)C(=O)N[C@@H]1CSC[C@@H](C(=O)O)NC(=O)[C@H](Cc2c[nH]cn2)NC(=O)[C@H](CCSC)NC(=O)[C@H](CCCNC(=N)N)NC1=O)C(C)C)C(C)C [Bib1α] | oligomeric in the presence of SDS | somewhat enhanced by the addition of lipid II | showed pore formation activity | 4 h | bactericidal | showed hemolytic activity | did not show strong membrane depolarization activity | 0.224 | 159 nm | did not induce hemolysis | incapable of protecting lipid II |  |  |
| C=C(NC(=O)[C@H](Cc1ccccc1)NC(=O)CNC(=O)[C@H](CC(C)C)NC(=O)[C@H](C)NC(=O)[C@H](CC(C)C)NC(=O)CNC(=O)CNC(=O)CNC(=O)[C@@H](NC(=O)[C@H](C)NC(=O)[C@@H]1CS[C@H](C)[C@H](N)C(=O)NC(=CC)C(=O)N2CCC[C@H]2C(=O)N[C@@H](C(C)C)C(=O)N1)[C@@H](C)CC)C(=O)N[C@H](C(=O)N[C@@H]1CSC[C@@H](C(=O)O)NC(=O)[C@H](Cc2ccc(O)cc2)NC(=O)[C@H]([C@@H](C)CC)NC(=O)[C@H](CCCCN)NC1=O)[C@@H](C)CC [Bib1βDha] |  |  |  |  |  | did not show any hemolytic activity beyond that of a negative control |  |  |  |  |  |  |  |
| CC=C1NC(=O)[C@@H](N)[C@@H](C)SC[C@@H](C(=O)N[C@@H](C)C(=O)N[C@H](C(=O)NCC(=O)NCC(=O)NCC(=O)N[C@@H](CC(C)C)C(=O)N[C@@H](C)C(=O)N[C@@H](CC(C)C)C(=O)NCC(=O)N[C@@H](Cc2ccccc2)C(=O)N[C@@H](CO)C(=O)N[C@H](C(=O)N[C@@H]2CSC[C@@H](C(=O)O)NC(=O)[C@H](Cc3ccc(O)cc3)NC(=O)[C@H]([C@@H](C)CC)NC(=O)[C@H](CCCCN)NC2=O)[C@@H](C)CC)[C@@H](C)CC)NC(=O)[C@H](C(C)C)NC(=O)[C@@H]2CCCN2C1=O [Bib1β] | oligomeric in the presence of SDS |  | did not show pore formation activity |  | bactericidal | showed hemolytic activity | did not show strong membrane depolarization activity | 0.384 | 291 nm | did not induce hemolysis | incapable of protecting lipid II | 8 h | bimodal |

Reference: publication PMC11385697, “Bibacillin 1: a two-component lantibiotic from Bacillus thuringiensis” (RSC Chemical Biology, 2024)
